According to US6166290A, “Glutathione-S-conjugate transport in plants” (The Trustees of the University of Pennsylvania, priority 1997, dated 2000):
Several values for one entry are separate records, joined by “and”; a condition that tells them apart may be missing. Identical values can stand only once. Like-named read-outs stand apart in the source and are kept apart here.

What was measured:
[1] = target: T1, YCF1 (vacuolar membrane vesicles purified from DTY165 cells) (Saccharomyces cerevisiae, UniProt P39109); assay: [3H]DNP-GS uptake by vacuolar membrane vesicles purified from DTY165 cells; format: biochemical
T1 construct: endogenous in cells; host or cells: S. cerevisiae DTY165 (wild type YCF1), vacuolar membrane vesicles
T1 sequence (P39109 whole entry): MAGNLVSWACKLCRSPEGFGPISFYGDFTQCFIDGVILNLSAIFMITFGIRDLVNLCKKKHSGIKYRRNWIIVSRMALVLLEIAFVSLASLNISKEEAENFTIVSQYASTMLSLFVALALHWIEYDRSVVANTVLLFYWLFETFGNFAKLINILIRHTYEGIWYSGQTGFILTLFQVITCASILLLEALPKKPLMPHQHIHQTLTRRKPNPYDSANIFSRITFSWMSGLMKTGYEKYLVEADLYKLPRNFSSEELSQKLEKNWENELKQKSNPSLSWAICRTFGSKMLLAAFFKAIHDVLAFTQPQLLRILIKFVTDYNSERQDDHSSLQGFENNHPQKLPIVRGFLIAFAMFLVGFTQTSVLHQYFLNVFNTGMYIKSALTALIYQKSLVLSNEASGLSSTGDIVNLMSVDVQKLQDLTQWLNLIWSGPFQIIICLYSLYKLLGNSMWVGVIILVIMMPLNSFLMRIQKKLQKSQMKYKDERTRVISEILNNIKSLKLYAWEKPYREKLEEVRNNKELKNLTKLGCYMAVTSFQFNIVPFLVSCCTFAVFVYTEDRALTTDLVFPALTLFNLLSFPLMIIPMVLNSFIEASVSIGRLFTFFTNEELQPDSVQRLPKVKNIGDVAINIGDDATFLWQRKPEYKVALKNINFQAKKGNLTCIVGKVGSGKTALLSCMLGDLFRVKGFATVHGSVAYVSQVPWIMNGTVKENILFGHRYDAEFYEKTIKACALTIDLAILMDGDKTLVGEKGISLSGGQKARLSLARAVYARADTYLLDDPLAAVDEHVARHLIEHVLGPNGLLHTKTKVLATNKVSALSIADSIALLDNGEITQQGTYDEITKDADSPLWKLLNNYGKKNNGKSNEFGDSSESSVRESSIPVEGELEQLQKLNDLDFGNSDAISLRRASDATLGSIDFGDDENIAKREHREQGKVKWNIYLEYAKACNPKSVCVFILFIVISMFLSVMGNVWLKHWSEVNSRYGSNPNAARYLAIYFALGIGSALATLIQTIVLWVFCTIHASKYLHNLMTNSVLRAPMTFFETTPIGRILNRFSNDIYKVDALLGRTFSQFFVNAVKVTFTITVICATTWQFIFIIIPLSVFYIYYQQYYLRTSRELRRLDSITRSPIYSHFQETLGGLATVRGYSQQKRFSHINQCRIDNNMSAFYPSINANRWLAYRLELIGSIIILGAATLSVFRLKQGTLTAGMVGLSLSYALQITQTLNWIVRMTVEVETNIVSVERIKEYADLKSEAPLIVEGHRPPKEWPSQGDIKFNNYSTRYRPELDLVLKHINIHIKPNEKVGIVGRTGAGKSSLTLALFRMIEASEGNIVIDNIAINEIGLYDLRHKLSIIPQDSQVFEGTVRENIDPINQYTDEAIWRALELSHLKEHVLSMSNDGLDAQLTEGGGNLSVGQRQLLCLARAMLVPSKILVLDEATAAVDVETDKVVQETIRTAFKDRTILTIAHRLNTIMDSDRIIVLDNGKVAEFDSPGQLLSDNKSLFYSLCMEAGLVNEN
Outline: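 ATP-dependent [3H]DNP-GS (66.2 μM) transport measured by filtration and scintillation counting of Ficoll-purified yeast vacuolar vesicles (DTY165 wild type; DTY167 ycf1Δ), 1–60 min at 25 °C in sorbitol/Tris-Mes pH 8.0 with 3 mM ATP, 3 mM MgSO4 and gramicidin-D. Nonenergized uptake without ATP/Mg2+.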

AtMRP1 = target: T2, AtMRP1 (Arabidopsis thaliana, UniProt Q9C8G9); assay: AtMRP1-dependent uptake by membrane vesicles from pYES3-AtMRP1-transformed DTY168 cells; format: biochemical
T2 construct: S. cerevisiae DTY168 (ycf1 null) vacuolar-enriched membrane vesicles
T2 sequence (Q9C8G9 whole entry): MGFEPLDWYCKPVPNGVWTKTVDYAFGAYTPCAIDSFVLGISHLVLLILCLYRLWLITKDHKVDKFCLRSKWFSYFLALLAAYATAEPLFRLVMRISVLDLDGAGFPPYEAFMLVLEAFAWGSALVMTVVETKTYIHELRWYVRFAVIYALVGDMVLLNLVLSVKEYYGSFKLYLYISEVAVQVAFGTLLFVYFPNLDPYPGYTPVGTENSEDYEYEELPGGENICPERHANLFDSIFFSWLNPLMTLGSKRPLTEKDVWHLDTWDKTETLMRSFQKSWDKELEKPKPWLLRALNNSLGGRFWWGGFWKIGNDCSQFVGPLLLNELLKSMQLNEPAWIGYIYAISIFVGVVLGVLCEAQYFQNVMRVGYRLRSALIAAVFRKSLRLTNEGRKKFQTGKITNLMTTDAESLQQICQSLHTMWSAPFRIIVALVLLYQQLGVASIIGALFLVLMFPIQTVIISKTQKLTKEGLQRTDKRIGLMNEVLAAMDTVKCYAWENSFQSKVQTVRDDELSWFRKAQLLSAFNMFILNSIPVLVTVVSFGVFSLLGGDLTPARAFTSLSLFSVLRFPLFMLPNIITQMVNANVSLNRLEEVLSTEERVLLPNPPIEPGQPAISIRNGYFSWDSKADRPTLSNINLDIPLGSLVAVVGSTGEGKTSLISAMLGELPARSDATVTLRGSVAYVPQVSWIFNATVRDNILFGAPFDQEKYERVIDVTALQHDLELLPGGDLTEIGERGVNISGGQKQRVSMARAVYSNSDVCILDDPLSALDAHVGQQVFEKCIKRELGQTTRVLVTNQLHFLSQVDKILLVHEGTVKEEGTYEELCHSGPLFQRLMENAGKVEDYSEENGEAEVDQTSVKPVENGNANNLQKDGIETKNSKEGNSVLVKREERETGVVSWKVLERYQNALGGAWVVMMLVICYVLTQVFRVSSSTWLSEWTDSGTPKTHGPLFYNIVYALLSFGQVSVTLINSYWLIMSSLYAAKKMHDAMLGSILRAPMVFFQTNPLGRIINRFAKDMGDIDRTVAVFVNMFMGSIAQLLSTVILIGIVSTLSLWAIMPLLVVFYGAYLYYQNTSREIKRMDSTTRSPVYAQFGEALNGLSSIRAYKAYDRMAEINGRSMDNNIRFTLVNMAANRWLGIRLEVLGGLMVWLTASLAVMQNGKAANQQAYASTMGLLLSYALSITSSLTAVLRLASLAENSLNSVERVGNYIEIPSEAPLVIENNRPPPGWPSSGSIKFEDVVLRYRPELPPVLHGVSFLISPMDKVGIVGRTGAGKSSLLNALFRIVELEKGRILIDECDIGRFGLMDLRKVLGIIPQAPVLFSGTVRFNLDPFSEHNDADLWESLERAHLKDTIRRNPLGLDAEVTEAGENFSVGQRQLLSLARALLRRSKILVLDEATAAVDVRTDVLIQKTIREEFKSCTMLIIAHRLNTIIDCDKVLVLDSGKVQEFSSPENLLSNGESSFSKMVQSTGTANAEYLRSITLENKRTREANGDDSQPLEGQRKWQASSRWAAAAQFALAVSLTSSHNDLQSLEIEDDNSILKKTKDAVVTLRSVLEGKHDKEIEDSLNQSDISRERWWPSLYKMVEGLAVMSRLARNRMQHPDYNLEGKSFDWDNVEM
Description: (§1) S. cerevisiae strain DTY168 (MATα his6, leu2-3, -112, ura3-52 ycf1::hisG) was transformed with pYES3-AtMRP1 or empty vector lacking the AtMRP1 insert (pYES3) by the LiOAc/PEG method (Giest et al., 1991, Yeast 7:253-263) and selected for uracil prototrophy by plating on AHC medium containing tryptophan (Kim et al., 1994, supra).
(§2) For the preparation of membrane vesicles, 15 ml volumes of stationary phase cultures of the transformants were diluted into 1 L of fresh AHC medium and grown to an OD600 nm of about 1.2. Membrane vesicles were purified as described herein and in Kim et al. (1995, supra).
[…] μl reaction volumes containing 3 mM ATP, 3 mM MgSO4, 5 μM gramicidin-D, 10 mM creatine phosphate, 16 units/ml creatine kinase, 50 mM KCl, 1 mg/ml BSA, 400 mM sorbitol, 25 mM Tris-Mes ([…]).
Cells were grown and vacuolar membrane-enriched vesicles were prepared as described (Kim et al., 1995, J Biol. Chem. 270:2630-2635-). […] Uptake was terminated by the addition of 1 ml ice-cold wash medium (400 mM sorbitol/3 mM Tris-Mes, pH 8.0) and vacuum filtration of the suspension through prewetted Millipore HA cellulose nitrate filters (pore size 0.45 μm). The filters were rinsed twice with wash medium, and the retained radioactivity was determined by liquid scintillation counting. Nonenergized uptake was estimated by the same procedure except that ATP was omitted from the uptake medium.

[2] = test system: membrane vesicles purified from pYES3-transformed DTY168 cells; assay: DNP-GS uptake by membrane vesicles from pYES3 (empty vector)-transformed DTY168 cells; format: biochemical, Saccharomyces cerevisiae
Description: as §1, §2
DNP-GS uptake was measured as described herein in 200 μl reaction volumes containing 3 mM ATP, 3 mM MgSO4, 5 μM gramicidin-D, 10 mM creatine phosphate, 16 units/ml creatine kinase, 50 mM KCl, 1 mg/ml BSA, 400 mM sorbitol, 25 mM Tris-Mes (pH 8.0) and the indicated concentrations of [^3 H]DNP-GS (17.4 mCi/mmol).

[3] = test system: vacuolar GS-X pump (vacuolar membrane vesicles, Z. mays roots); assay: GS-conjugate uptake by vacuolar membrane vesicles from roots of Z. mays; format: biochemical, Zea mays
[4] = test system: vacuolar GS-X pump (vacuolar membrane vesicles, V. radiata hypocotyls); settings: cited from earlier work
[5] = test system: vacuolar GS-X pump (vacuolar membrane vesicles, Z. mays roots); settings: Zea mays root; cited from earlier work
[6] = test system: vacuolar membrane vesicles purified from Arabidopsis leaf / root; settings: cited from earlier work
[7] = test system: vacuolar membrane vesicles purified from Beta vulgaris storage root; settings: cited from earlier work
[8] = test system: endogenous GS-X pump of plant vacuolar membranes; settings: read-out: Km for transport by endogenous plant vacuolar GS-X pump; cited from earlier work

SMILES: N[C@@H](CCC(=O)N[C@@H](CSc1ccc([N+](=O)[O-])cc1[N+](=O)[O-])C(=O)NCC(=O)O)C(=O)O [DNP-GS, S-(2,4-dinitrophenyl)glutathione]
- Vmax(DNP-GS) of MgATP-dependent uncoupler-insensitive uptake ([1]; 3 mM MgATP, 5 μM gramicidin D): 51.0±16.3 nmol/mg/10 minutes and 51.0±6.3 nmol/mg/10 minutes
- initial rate of DNP-GS uptake ([1]; 3 mM MgATP, 66.2 μM DNP-GS): 12.2 nmol/mg/min
- DNP-GS uptake, control ([1]; Table 1: 66.2 μM DNP-GS, 3 mM MgATP, no addition): 77.7 ± 1.0 nmol/mg/10 minutes
- MgATP-dependent, uncoupler-insensitive DNP-GS uptake, control ([1]; Table 2: 5 μM gramicidin D, no compound): 47.9 ± 2.5 nmol/mg/10 minutes
- MgATP-dependent, uncoupler-insensitive DNP-GS uptake, vacuolar membrane ([1]; Table 4, vacuolar membrane vesicles from DTY165 cells): 69.9 ± 1.0 nmol/mg/10 min
- MgATP-dependent, uncoupler-insensitive DNP-GS uptake, crude microsomes ([1]; crude microsomes from DTY165 cells): 2.5 ± 0.3 nmol/mg/10 min
- increase in DNP-GS uptake following introduction of plasmid borne AtMRP1 (AtMRP1): ca. 4 nmol/mg/20 minutes
- initial rate of DNP-GS uptake (AtMRP1; 61.3 μM DNP-GS): 0.4 nmol/mg/min
- Vmax for AtMRP1-dependent uptake (AtMRP1; MgATP-dependent, uncoupler-insensitive): 6.0±1.7 nmol/mg/10 min and 8.2±1.6 nmol/mg/10 min
- initial rate of DNP-GS uptake ([2]; 61.3 μM DNP-GS): 0.1 nmol/mg/min
- Km ([2]; read-out: apparent Km for DNP-GS uptake): > 500 µM
- IC50 ([3]; read-out: I50 for uptake of ABA-GS): 232 µM
- IC50 ([3]; read-out: I50 for uptake of C3G-GS): 112 µM
- IC50 ([3]; read-out: I50 for uptake of IAA-GS): 110 µM
- rate of MgATP-dependent, uncoupler-insensitive DNP-GS uptake ([4]; Vigna radiata hypocotyl): 5.8 nmol/mg/20 minutes
- Km estimated previously in this system [4]: 80 µM
- Vmax of GS-X pump ([4]; comparison value for DNP-GS): 12 nmol/mg/20 minutes
- rate of MgATP-dependent, uncoupler-insensitive DNP-GS uptake [5]: 2.1 nmol/mg/20 minutes
- rate of MgATP-dependent, uncoupler-insensitive DNP-GS uptake ([6]; Arabidopsis leaf): 2.3 nmol/mg/20 minutes
- rate of MgATP-dependent, uncoupler-insensitive DNP-GS uptake ([6]; Arabidopsis root): 3.8 nmol/mg/20 minutes
- rate of MgATP-dependent, uncoupler-insensitive DNP-GS uptake [7]: 18.2 nmol/mg/20 minutes
- Km [8]: 81.3 ± 41.8 µM
